Measured values taken from ChEMBL document CHEMBL1201862, “PubChem BioAssay data set” (2004).
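Compound exposure: 48 hours, 5 concentrations, 96-well plates. GI50 is the concentration that inhibits growth by half.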 Calls of active or inactive are those of the source. No stated cut-off is given here; in the data, active = GI50 up to about 1.1 µM and inactive = higher.

Assays:
Assay in all cases: NCI-60 cell line screen, 48 h
RXF 393 = test system: RXF 393
OVCAR-3 = test system: OVCAR-3
M14 = test system: M14
Malme-3M = test system: Malme-3M
K562 = test system: K562
COLO 205 = test system: COLO 205
ACHN = test system: ACHN
NCI-H23 = test system: NCI-H23
MOLT-4 = test system: MOLT-4
NCI-H226 = test system: NCI-H226
A549 = test system: A549
HL-60 = test system: HL-60
EKVX = test system: EKVX
SN12C = test system: SN12C
CAKI-1 = test system: CAKI-1
UACC-257 = test system: UACC-257
786-0 = test system: 786-0
SR = test system: SR

Measured: GI50

CC(N)C(=O)c1ccc(O)cc1 (centres undefined)
inactive: RXF 393 > 100 µM | OVCAR-3 > 100 µM | M14 > 100 µM | Malme-3M > 100 µM | K562 > 100 µM | COLO 205 > 100 µM | ACHN > 100 µM | NCI-H23 > 100 µM | MOLT-4 > 100 µM | NCI-H226 > 100 µM | A549 > 100 µM | HL-60 > 100 µM | EKVX > 100 µM | SN12C > 100 µM | CAKI-1 > 100 µM | UACC-257 > 100 µM | 786-0 > 100 µM

CC1CN1P1(N2CC2C)=NP(N2CC2C)(N2CC2C)=NP(N2CC2C)(N2CC2C)=N1 (centres undefined)
inactive: RXF 393 > 50 µM | OVCAR-3 > 50 µM | M14 > 50 µM | Malme-3M > 50 µM | K562 > 50 µM | COLO 205 > 50 µM | ACHN > 50 µM | NCI-H23 > 50 µM | MOLT-4 > 50 µM | NCI-H226 > 50 µM | A549 > 50 µM | HL-60 > 50 µM | EKVX > 50 µM | SN12C > 50 µM | CAKI-1 > 50 µM | SR > 50 µM | 786-0 > 50 µM

COc1ccc(OC)c(NC(=O)C2=C(C)NC(C)=C(C(=O)Nc3cc(OC)ccc3OC)C2c2ccco2)c1
inactive: OVCAR-3 > 100 µM | M14 > 100 µM | Malme-3M > 100 µM | K562 > 100 µM | COLO 205 > 100 µM | ACHN > 100 µM | NCI-H23 > 100 µM | MOLT-4 27.7 µM | NCI-H226 > 100 µM | A549 > 100 µM | EKVX > 100 µM | SN12C > 100 µM | CAKI-1 89.5 µM | SR 64.6 µM | 786-0 > 100 µM

CCOC(=O)c1c[nH]c2c(ccc3ncccc32)c1=O
inactive: RXF 393 > 100 µM | OVCAR-3 > 100 µM | M14 > 100 µM | Malme-3M > 100 µM | K562 > 100 µM | COLO 205 > 100 µM | ACHN > 100 µM | NCI-H23 > 100 µM | MOLT-4 > 100 µM | A549 > 100 µM | HL-60 > 100 µM | EKVX > 100 µM | SN12C > 100 µM | SR > 100 µM | UACC-257 > 100 µM | 786-0 > 100 µM

C[C@]12CC[C@H](O)CC1=CC[C@@H]1C2CC[C@]2(C)C(=O)N(N)C(=O)CC12 (some centres undefined)
inactive: RXF 393 > 100 µM | OVCAR-3 > 100 µM | M14 > 100 µM | Malme-3M > 100 µM | K562 > 100 µM | COLO 205 > 100 µM | ACHN > 100 µM | NCI-H23 > 100 µM | MOLT-4 > 100 µM | NCI-H226 > 100 µM | A549 > 100 µM | HL-60 > 100 µM | EKVX > 100 µM | SN12C > 100 µM | CAKI-1 > 100 µM | SR > 100 µM | UACC-257 > 100 µM | 786-0 > 100 µM

CN1CCN(C)C12C=CC=CC21CC1
inactive: RXF 393 > 100 µM | OVCAR-3 > 100 µM | M14 > 100 µM | Malme-3M > 100 µM | K562 > 100 µM | COLO 205 > 100 µM | ACHN > 100 µM | NCI-H23 > 100 µM | MOLT-4 > 100 µM | NCI-H226 > 100 µM | A549 > 100 µM | HL-60 > 100 µM | EKVX > 100 µM | SN12C > 100 µM | CAKI-1 > 100 µM | SR > 100 µM | UACC-257 > 100 µM | 786-0 > 100 µM

N/C(=C\c1ccc(OCc2ccccc2)c(OCc2ccccc2)c1[N+](=O)[O-])C(=O)O
inactive: RXF 393 > 100 µM | OVCAR-3 > 100 µM | M14 > 100 µM | Malme-3M > 100 µM | K562 > 100 µM | COLO 205 > 100 µM | ACHN > 100 µM | NCI-H23 > 100 µM | MOLT-4 > 100 µM | NCI-H226 > 100 µM | A549 > 100 µM | HL-60 > 100 µM | EKVX > 100 µM | SN12C > 100 µM | SR > 100 µM | UACC-257 > 100 µM | 786-0 > 100 µM

COc1cc2c3c(c1OCc1ccccc1)NCCC3NCC2 (centres undefined)
inactive: RXF 393 98.2 µM | OVCAR-3 > 100 µM | M14 > 100 µM | Malme-3M > 100 µM | K562 > 100 µM | COLO 205 > 100 µM | NCI-H23 > 100 µM | MOLT-4 > 100 µM | NCI-H226 > 100 µM | A549 > 100 µM | HL-60 > 100 µM | EKVX > 100 µM | SN12C > 100 µM | CAKI-1 > 100 µM | SR > 100 µM | UACC-257 > 100 µM | 786-0 > 100 µM

CN(C)c1nc(N(C)C)nc(N(C)CN(C)c2nc(N(C)C)nc(N(C)C)n2)n1
inactive: RXF 393 > 100 µM | OVCAR-3 > 100 µM | M14 > 100 µM | Malme-3M > 100 µM | K562 > 100 µM | COLO 205 > 100 µM | ACHN > 100 µM | NCI-H23 > 100 µM | MOLT-4 > 100 µM | A549 > 100 µM | HL-60 > 100 µM | EKVX > 100 µM | SN12C > 100 µM | CAKI-1 > 100 µM | SR > 100 µM | UACC-257 > 100 µM | 786-0 14.9 µM

CC1=C(N(C)C)C(=O)c2nc3n(c2C1=O)CCC3OC(N)=O (centres undefined)
inactive: OVCAR-3 16.8 µM | M14 13.6 µM | Malme-3M 11.2 µM | K562 18.5 µM | COLO 205 18 µM | ACHN 16.7 µM | NCI-H23 13.8 µM | MOLT-4 13.1 µM | NCI-H226 19.4 µM | A549 18.8 µM | HL-60 10.4 µM | EKVX 20.5 µM | SN12C 15.2 µM | CAKI-1 18.5 µM | SR 31.3 µM | UACC-257 14.2 µM | 786-0 17.1 µM

Cc1c2ccncc2c(C)c2c1[nH]c1ccc(Oc3ccccc3)cc12
inactive: RXF 393 1.86 µM | OVCAR-3 2.46 µM | M14 1.82 µM | Malme-3M 1.79 µM | K562 1.92 µM | COLO 205 2.52 µM | ACHN 3.11 µM | NCI-H23 11.6 µM | MOLT-4 2.15 µM | NCI-H226 14.3 µM | A549 2.25 µM | HL-60 1.85 µM | EKVX 5.82 µM | SN12C 1.81 µM | CAKI-1 3.61 µM | SR 2.85 µM | UACC-257 2.45 µM | 786-0 1.78 µM

Cc1c(O)c(=O)ccn1CCO
inactive: RXF 393 > 100 µM | OVCAR-3 > 100 µM | M14 > 100 µM | Malme-3M > 100 µM | K562 > 100 µM | COLO 205 > 100 µM | ACHN > 100 µM | MOLT-4 > 100 µM | NCI-H226 > 100 µM | A549 > 100 µM | HL-60 > 100 µM | EKVX > 100 µM | SN12C > 100 µM | CAKI-1 > 100 µM | SR > 100 µM | UACC-257 > 100 µM | 786-0 > 100 µM
